This is an account of results in ChEMBL document CHEMBL1201862, “PubChem BioAssay data set” (2004).

Test systems include RPMI-8226; K562; 786-0; IGROV-1; Hs-578T; A549; HCT-15; PC-3; SF-268; MDA-MB-435; SK-MEL-2; CAKI-1; NCI-H522; SK-MEL-5; OVCAR-5; DU-145; NCI-H460; HL-60; U-251; NCI-H226.
Test in all cases: NCI tumour cell line growth inhibition, 48 h

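Cultured in 96-well plates, cells were exposed to test compound for 48 hours across five concentrations. At the GI50, growth is halved.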 Active and inactive are the calls of the source. Rule as the data show it: active = GI50 up to about 1.1 µM and inactive = higher.

As for `O=C(O)CSSCC(=O)O`, the GI50 with RPMI-8226, in the test with K562, with 786-0, in the test with IGROV-1, in the test on Hs-578T and in the test on A549 was > 100 µM (inactive) in each case. Moreover, the GI50 in the test on HCT-15 was over 100 µM; in the test on PC-3 it was > 100 µM (inactive); in the test with SF-268, > 100 µM (inactive); in the test on MDA-MB-435, > 100 µM (inactive); in the test with SK-MEL-2, > 100 µM (inactive); in the test on CAKI-1, > 100 µM (inactive). Moreover, the GI50 with NCI-H522, in the test with SK-MEL-5, in the test with OVCAR-5, in the test with DU-145, in the test with NCI-H460 and in the test with HL-60 was > 100 µM (inactive) in each case. Besides, the GI50 in the test on U-251 and in the test with NCI-H226 was > 100 µM (inactive) each time.
`CS(=O)(=O)N1CC(CCl)c2ccc([N+](=O)[O-])cc21` (stereo not given): the GI50 is > 100 µM (inactive) with RPMI-8226; > 100 µM (inactive) in the test on K562; > 100 µM (inactive) in the test on 786-0; > 100 µM (inactive) in the test with IGROV-1; 70.1 µM (inactive) in the test with Hs-578T; > 100 µM (inactive) with A549. In addition, the GI50 in the test on HCT-15 was over 100 µM; with PC-3, > 100 µM (inactive); in the test on SF-268 it was > 100 µM (inactive); with MDA-MB-435 it was > 100 µM (inactive); in the test on SK-MEL-2, > 100 µM (inactive); with CAKI-1 it was > 100 µM (inactive). Besides, the GI50 in the test with NCI-H522 was > 100 µM (inactive); with SK-MEL-5, > 100 µM (inactive); in the test on OVCAR-5, > 100 µM (inactive); with DU-145, > 100 µM (inactive); with NCI-H460, 38.2 µM (inactive); with HL-60 it was > 100 µM (inactive). Besides, the GI50 with U-251 is 58.6 µM (inactive); in the test with NCI-H226 it was > 100 µM (inactive).
With `COc1cc(OC)c2c(O)c(S(=O)(=O)c3ccc(C)cc3)c(=O)oc2c1`, the GI50 is 76.7 µM (inactive) in the test on RPMI-8226; 69.5 µM (inactive) in the test with K562; > 100 µM (inactive) with 786-0; > 100 µM (inactive) in the test with IGROV-1; 94.6 µM (inactive) in the test with Hs-578T; > 100 µM (inactive) in the test with A549. In addition, the GI50 with HCT-15 is over 100 µM; in the test on PC-3 it was > 100 µM (inactive); in the test on SF-268, > 100 µM (inactive); with MDA-MB-435, > 100 µM (inactive); with SK-MEL-2, > 100 µM (inactive); with CAKI-1, > 100 µM (inactive). In addition, the GI50 in the test on NCI-H522, with SK-MEL-5, in the test on OVCAR-5, in the test on DU-145, with NCI-H460 and in the test with HL-60 was > 100 µM (inactive) throughout. For the same compound, the figures for the GI50 in the test on U-251 and in the test on NCI-H226 were 96.6 µM (inactive) and > 100 µM (inactive), respectively.
As for `COc1cc(OC)c(-n2[nH]c(=O)n(C)c2=O)c(OC)c1`, the GI50 in the test with RPMI-8226, with K562, with 786-0, in the test on IGROV-1, in the test with Hs-578T and in the test with A549 was > 100 µM (inactive) throughout. Also, the GI50 with HCT-15 is over 100 µM; with PC-3, > 100 µM (inactive); in the test on SF-268 it was > 100 µM (inactive); in the test on MDA-MB-435, > 100 µM (inactive); in the test on SK-MEL-2, > 100 µM (inactive); in the test with CAKI-1, > 100 µM (inactive). Moreover, the GI50 is 49.7 µM (inactive) in the test on NCI-H522; > 100 µM (inactive) in the test on OVCAR-5; > 100 µM (inactive) with DU-145; > 100 µM (inactive) with NCI-H460; > 100 µM (inactive) in the test with HL-60; > 100 µM (inactive) with U-251. Moreover, the GI50 in the test with NCI-H226 was > 100 µM (inactive).
Consider `CNC(=O)NCCN1CC2CCC(CC2)C1`, for which the GI50 with RPMI-8226, in the test with K562, in the test with 786-0, with IGROV-1, in the test on Hs-578T and in the test on A549 was > 10 µM (inactive) each time. Moreover, the GI50 in the test on HCT-15 is over 10 µM; in the test on PC-3, > 10 µM (inactive); with SF-268, > 10 µM (inactive); in the test with MDA-MB-435, > 10 µM (inactive); in the test with SK-MEL-2, > 10 µM (inactive); in the test on CAKI-1 it was > 10 µM (inactive). For the same compound, the GI50 in the test with NCI-H522, in the test on SK-MEL-5, in the test with DU-145, in the test with NCI-H460, in the test with HL-60 and in the test with U-251 was > 10 µM (inactive) each time. The GI50 in the test on NCI-H226 was > 10 µM (inactive).
For `CN(C)C(=O)Nc1cc2c3c(c1)CCCN3CCC2`, the GI50 in the test on RPMI-8226, with K562, in the test on 786-0, in the test with IGROV-1, with Hs-578T and in the test with A549 was > 10 µM (inactive) in each case. The GI50 in the test on HCT-15 was over 10 µM; with PC-3, > 10 µM (inactive); with SF-268, > 10 µM (inactive); in the test on MDA-MB-435, > 10 µM (inactive); in the test on SK-MEL-2, > 10 µM (inactive); in the test with CAKI-1 it was > 10 µM (inactive). Besides, the GI50 in the test on NCI-H522, in the test with SK-MEL-5, with DU-145, with NCI-H460, in the test on HL-60 and in the test on U-251 was > 10 µM (inactive) each time. Also, the GI50 in the test with NCI-H226 was > 10 µM (inactive).
With `O=C(CCc1cccc(O)c1)NCCc1ccc(O)cc1`, the GI50 in the test with K562 was > 100 µM (inactive); in the test on 786-0 it was > 100 µM (inactive); in the test on IGROV-1, > 100 µM (inactive); with Hs-578T, > 100 µM (inactive); in the test with A549 it was > 100 µM (inactive); in the test on HCT-15, over 100 µM. Besides, the GI50 was > 100 µM (inactive) in the test on PC-3; > 100 µM (inactive) with SF-268; > 100 µM (inactive) in the test on MDA-MB-435; > 100 µM (inactive) in the test with SK-MEL-2; > 100 µM (inactive) in the test on CAKI-1; 17.3 µM (inactive) in the test with NCI-H522. Further, the GI50 in the test on SK-MEL-5, with OVCAR-5, in the test on DU-145, in the test with NCI-H460, in the test with HL-60 and in the test on U-251 was > 100 µM (inactive) in each case. Further, the GI50 in the test with NCI-H226 is > 100 µM (inactive).
For the compound `C[n+]1c(-c2ccc(/C=N/NC(=O)C(=O)N/N=C/c3ccc(-c4cn5ccccc5[n+]4C)cc3)cc2)cn2ccccc21`, the GI50 in the test with RPMI-8226, with K562, in the test on 786-0, in the test with IGROV-1, in the test on Hs-578T and in the test on A549 was > 100 µM (inactive) each time. In addition, the GI50 with HCT-15 was over 100 µM; with PC-3 it was > 100 µM (inactive); in the test with MDA-MB-435, > 100 µM (inactive); in the test with SK-MEL-2 it was > 100 µM (inactive); in the test on CAKI-1, > 100 µM (inactive); in the test on NCI-H522, > 100 µM (inactive). Moreover, the GI50 was 91 µM (inactive) in the test on SK-MEL-5; > 100 µM (inactive) in the test with OVCAR-5; > 100 µM (inactive) in the test with DU-145; > 100 µM (inactive) with NCI-H460; > 100 µM (inactive) in the test on HL-60; > 100 µM (inactive) with U-251. Besides, in the test on NCI-H226, the GI50 was > 100 µM (inactive).
